Source: US20230242532A1, “TETRACYCLIC PYRIMIDINONE COMPOUND, PREPARATION METHOD THEREFOR, AND COMPOSITION AND USE THEREOF” (NEUSCO BIOTECH LIMITED, priority 2019, published 2023)
Read-outs that look alike come from different tables or passages of the source.

Tests used:
[1] = biological target: T1, recombinant human Lp-PLA2 enzyme (Homo sapiens, UniProt Q13093); test: Recombinant human Lp-PLA2 assay (rhLp-PLA2), PED6 assay; format: biochemical
T1 sequence (Q13093 22-441): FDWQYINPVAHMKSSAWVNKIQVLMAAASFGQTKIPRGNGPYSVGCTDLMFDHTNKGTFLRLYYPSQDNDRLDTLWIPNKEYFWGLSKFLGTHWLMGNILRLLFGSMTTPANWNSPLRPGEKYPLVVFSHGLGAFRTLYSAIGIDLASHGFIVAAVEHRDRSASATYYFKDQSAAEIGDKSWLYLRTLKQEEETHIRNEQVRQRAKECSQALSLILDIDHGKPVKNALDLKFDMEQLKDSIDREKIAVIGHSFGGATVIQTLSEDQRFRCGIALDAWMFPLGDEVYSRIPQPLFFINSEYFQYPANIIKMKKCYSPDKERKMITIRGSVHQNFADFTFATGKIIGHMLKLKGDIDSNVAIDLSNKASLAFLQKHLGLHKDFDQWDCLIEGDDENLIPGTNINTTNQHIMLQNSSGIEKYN
Protocol: (1) Recombinant Human Lp-PLA2 Assay (rhLp-PLA2), Also Referred to as PED6 Assay
PED6 was a fluorescently-labeled phospholipid that could be purchased dorectly from Invitogene or Molecular Probes. […] Once cleaved by the Lp-PLA2 enzyme, it would release the FL group, resulting in enhanced fluorescence.
Assay Method: The compound to be tested (as shown in Table 1) was mixed with a DMSO solution in a volume ratio of 1:3, and diluted to prepare a source plate of a 384-well microplate. Then 0.01 μl of the compound was transferred via an ECHO liquid dispenser from the source plate to a 384-well Greiner 784076 plate, and 5 μl of a buffer consisting of 50 mM HEPES, pH7.4, 150 mM NaCl, and 1 mM CHAPS (the buffer solution containing a recombinant human Lp-PLA2 enzyme at a concentration of 4 nM or 110 pM) was added to each well of the plate. The plate was centrifuged at 500 rpm for 10 seconds. After a 30-min pre-incubation, 5 μl of the above-mentioned buffer was added to a 384-well Greiner 784076 plate, the plate was centrifuged at 500 rpm for 10 seconds.

[2] = biological target: T2, Lp-PLA2 enzyme in human plasma (Homo sapiens, UniProt Q13093); test: Assay of Lp-PLA2 in human plasma (Thio-PAF assay); format: biochemical
T2 construct: from tissue; host or cells: mixed (pooled) human plasma
T2 sequence (Q13093 22-441): T1 sequence (Q13093 22-441)
Protocol: (2) Assay of Lp-PLA2 in Human Plasma (Also Referred to as Thio-PAF Assay)
The human plasma assay was conducted using the sulphatide analog of PAF (phosphatidylcholine). After hydrolysis, it would generate phospholipids containing free sulfhydryl groups, which would be subjected to Michael addition with CPM to generate fluorescence-enhancing maleimide. Continuous quantitative analysis of thiol could be conducted by detecting the fluorescence intensity. This assay could be used to detect the inhibitory activity of the Lp-PLA2 inhibitor on the Lp-PLA2 enzyme in human plasma.
Assay Method: The compound to be tested (as shown in Table 2) was mixed with a DMSO solution in a volume ratio of (1:3), and diluted to prepare a source plate of a 384-well microplate. Then 0.01 μl of the compound was transferred via an ECHO liquid dispenser from the source plate to a 384-well Greiner 784076 plate, and 8 μl of pre-aliquoted and frozen mixed human plasma was then added. The plate was centrifuged at 500 rpm for 10 seconds. After a 30-min pre-incubation, 2 μl of a substrate solution, and a buffer containing 2.5 mM 2-thio-PAF (a solution in ethanol), 32 μM CPM (a solution in DMSO) and 3.2 mM N-ethylmaleimide (NEM) (a buffer solution consisting of 50 mM HEPES, pH7.4, 150 mM NaCl, 1 mM CHAPS) was added by a BRAVO liquid handling station to a 384-well Greiner 784076 low-volume plate. Two minutes later, the reaction was quenched with 5 μl of 5% trifluoroacetic acid. After the plate was incubated at room temperature for 40 min in a dark place, the fluorescence intensity was read at ex 380/em 485 with an Envision microplate reader, and the XL fitting model in Excel was used to perform the curve analysis and QC analysis to calculate pIC50.

[3] = PED6 substrate, recombinant human Lp-PLA2 at 4 nM or 110 pM, 30-min pre-incubation, fluorescence ex 480/em 540, read-out: rhLp-PLA2 (pIC50) (converted)
[4] = mixed human plasma, 2-thio-PAF substrate with CPM, 30-min pre-incubation, fluorescence ex 380/em 485, read-out: Thio-PAF (pIC50) (converted)

Row | Compound | IC50 [1, 3] [nM] | IC50 [2, 4] [nM] | IC50 [1] [nM] | IC50 [2] [nM]
1 | O=c1nc(OCc2cc(F)c(Oc3ccnc(C(F)(F)F)c3)c(F)c2)cc2n1CC13CCC(CC1)N23 [Compound 4] | 0.0398 | 3.98 |  | 
2 | O=c1nc(OCc2cc(F)c(Oc3ccc(C(F)(F)F)c(Cl)c3)c(F)c2)cc2n1CC13CCC(CC1)N23 [Compound 14] | 0.0794 | 7.94 |  | 
3 | O=c1nc(OCc2cc(F)c(Oc3ccc(C(F)(F)F)nc3)c(F)c2)cc2n1CC13CCC(CC1)N23 [Compound 6] | 0.0501 | 7.94 |  | 
4 | Cc1ncc(Oc2c(F)cc(COc3cc4n(c(=O)n3)CC35CCC(CC3)N45)cc2F)cn1 [Compound 9] | 0.1 | 12.6 |  | 
5 | O=c1nc(OCc2cc(F)c(Oc3ccnc(C(F)(F)F)c3)c(F)c2)cc2n1CC13CCCC(CC1)N23 (stereo not drawn) [Compound 18] | 0.1 | 7.94 |  | 
6 | O=c1nc(OCc2cc(F)c(Oc3cccc(OC(F)(F)F)c3)c(F)c2)cc2n1CC13CCC(CC1)N23 [Compound 16] | 0.1 | 12.6 |  | 
7 | O=c1nc(OCc2cc(F)c(Oc3ccc(Cl)c(C(F)(F)F)c3)c(F)c2)cc2n1CC13CCC(CC1)N23 [Compound 10] | 0.0631 | 7.94 |  | 
8 | O=c1nc(OCc2cc(F)c(Oc3ccc(C(F)(F)F)cc3)c(F)c2)cc2n1CC13CCC(CC1)N23 [Compound 5] | 0.0316 | 6.31 |  | 
9 | O=c1nc(OCc2cc(F)c(Oc3cnc(C(F)(F)F)nc3)c(F)c2)cc2n1CC13CCC(CC1)N23 [Compound 13] | 0.251 | 20 |  | 
10 | O=c1nc(OCc2cccc(F)c2F)cc2n1CC13CCC(CC1)N23 [Compound 1] |  |  | 2.51 | 100
11 | O=c1nc(OCc2ccc(F)c(F)c2)cc2n1CC13CCC(CC1)N23 [Compound 3] |  |  | 0.501 | 15.8
12 | O=c1nc(OCc2ccc(F)cc2)cc2n1CC13CCC(CC1)N23 [Compound 2] |  |  | 0.794 | 25.1
13 | Cc1cc(Oc2c(F)cc(COc3cc4n(c(=O)n3)CC35CCC(CC3)N45)cc2F)ccn1 [Compound 7] | 0.0398 | 3.16 |  | 
14 | O=c1nc(OCc2cc(F)c(Oc3cccc(C(F)(F)F)c3)c(F)c2)cc2n1CC13CCC(CC1)N23 [Compound 11] | 0.0794 | 12.6 |  | 
15 | O=c1nc(OCc2cc(F)c(Oc3ccc(OC(F)(F)F)c(Cl)c3)c(F)c2)cc2n1CC13CCC(CC1)N23 [Compound 17] | 0.0794 | 10 |  | 
16 | Cc1cc(Oc2c(F)cc(COc3cc4n(c(=O)n3)CC35CCC(CC3)N45)cc2F)ccc1Cl [Compound 12] | 0.0794 | 10 |  | 
17 | Cc1ccc(Oc2c(F)cc(COc3cc4n(c(=O)n3)CC35CCC(CC3)N45)cc2F)cn1 [Compound 8] | 0.0316 | 7.94 |  | 
18 | Cc1ncc(Oc2c(F)cc(COc3cc4n(c(=O)n3)CC35CCCC(CC3)N45)cc2F)cn1 (stereo not drawn) [Compound 19] | 0.316 | 15.8 |  | 
